Drawing on a melting point compilation (Tetko et al.; mined from patent text by program, amines drawn as free bases though some values may be those of a salt), this text covers melting point for 89 compounds.

Some results are limits rather than exact numbers.

As usually defined, the melting point is the temperature of the solid-liquid transition.

Regarding `CC(C)c1cc(C(C)C)c(CC(=O)NS(=O)(=O)Oc2c(C(C)C)cc(O)cc2C(C)C)c(C(C)C)c1`, the melting point fell in the range of 182 to 183 °C.
Compound `CSc1ccc(C2(C(C)=O)C=CC=CC2)cc1` (centres undefined) had a melting point of 182 to 184 °C.
`COC(=S)c1sc(C)c(N)c1N` gave a melting point of 95 to 97 °C.
In the case of `O=C1c2ccc(C(F)(F)F)cc2CCC1CN1CCC2(CC1)C(=O)NCN2c1ccccc1` (centres undefined) it was 159 to 162 °C; in that of `CC(C)CC(SCC1CCCCC1)c1c(O)cc(-c2ccccc2)oc1=O` (centres undefined), 146 to 148 °C; in that of `CC1CCN(c2ccc(Nc3ncc4c(n3)S/C(=C/c3ccc([N+](=O)[O-])cc3)C(=O)N4)cc2)CC1`, 280 to 282 °C.
In the case of `CC(C)COc1ccc2sc(-c3ccccn3)nc(=O)c2c1` it was 136 °C.
With `COC(=O)C[C@H]1[C@H](C(=O)N(C)OC)C(=O)N1C(c1ccccc1)(c1ccccc1)c1ccccc1`, the melting point was in the range of 168 to 169 °C.
In the case of `Cc1ccc(S(=O)(=O)C[C@H]2CN3C(=O)C[C@@H]3O2)cc1` (racemic) it was 120 to 121 °C; in that of `COc1cc2c(cc1-c1cccnc1)-c1c(C3NCCO3)c3c(n1CC2)C(=O)N(C(C)(C)C)CCC3` (centres undefined), 218 to 220 °C.
Compound `COC(=O)Cc1cc(OC)ccc1C(C)=O` showed a melting point of 74 to 76 °C.
As for `CCc1nc2ccc3c(c2o1)C(CCNC(C)=O)CC3` (centres undefined), the figure is 76 to 78 °C; as for `Cc1cccc2c(=O)c3ccccc3ccc12`, 77 to 80 °C; as for `CC(C)(C)C1COC1(Cn1cncn1)c1ccc(F)cc1` (centres undefined), 128 °C.
As to `O=C(O)COc1ccc(C(=O)c2cccc(F)c2)c(Cl)c1Cl`, the melting point is 166 to 168 °C.
`Cn1c(=O)c2c(N)nc(N)nc2n(C)c1=O` registered a melting point above 300 °C.
In the case of `CCCCCCCCCCC[C@@H](O)CC(=O)OC` it was 42 to 43 °C.
Consider `Cc1nc2cnc3ccc(Cl)cc3c2n1-c1ccccc1Cl`, for which the melting point worked out at 178 °C.
The compound `Cc1cc(C)c2c(-c3ccc(C(C)C)cc3)csc2c1` registered a melting point of 83 to 84 °C.
As to `Cc1ccc(NC(N)=S)c(O)c1`, the melting point is 175 to 177 °C.
Turning to `O=c1cc(CO)occ1OCCC12CC3CC(CC(C3)C1)C2`, the melting point fell in the range of 155 to 157 °C.
In the case of `Cn1nc(C(=O)NCc2ccc(Cl)cc2)c(=O)c2cc(C#CCO)ccc21` it was 229 to 231 °C; in that of `CC[C@@H]1O[C@](C#Cc2ccoc2)(C(F)(F)F)c2cc(Cl)ccc2NC1=O` (relative stereo), 169 to 170 °C; in that of `C=CCN(CC=C)c1ccc(C=Cc2ccc(S(C)(=O)=O)cc2)cc1`, 101 to 102 °C.
In the case of `COC(=O)c1sccc1N=NN(C)C` it was 74 to 76 °C; in that of `O=C(O)c1coc(Cn2cc(C3c4ccccc4C=Cc4ccccc43)c(=S)[nH]c2=O)n1`, 200 °C.
As for `COc1cc2c3c(cccc3c1Br)C(=O)N(O)C2=O`, the figure is 250 to 253 °C; as for `CCCCCCCCCCNC(=O)Nc1ccc(N(C)C)cc1C(=O)NCC1CCN(C(c2ccccc2)c2ccccc2)CC1`, 145 to 147 °C.
Compound `CC(C)Cc1ccccc1Sc1c(O)cc(-c2cccc(-c3ccccc3)c2)oc1=O` displayed a melting point of 187 to 188 °C.
As for `COC(=O)c1cc(=O)c2oc3cc(OC)ccc3c(=O)c2[nH]1`, the figure is 258 to 260 °C; as for `NCc1nc2ccccc2o1`, 46.5 to 47.5 °C.
As for `CCCCn1nc(C=O)nc1Cc1ccc(-c2ccccc2-c2nnn[nH]2)nc1`, the figure is 167 to 168 °C; as for `CC1(C)SC(c2ccccc2O)NC1C(=O)O` (centres undefined), 179 to 181 °C.
Turning to `Clc1ccccc1CN1CC=C(c2cc3ccccc3s2)CC1`, the melting point lay in the range of 105 to 106 °C.
As for `COc1cc(C=C2CCCOC2CN)c([N+](=O)[O-])cc1OC` (centres undefined), the figure is 89 to 96 °C.
As for `Cc1cc(C)c(C2Cc3cc(NC(=O)CC(C)(C)C)cc(Cc4ccc(C(C)C)cc4)c3O2)cc1CO` (centres undefined), the figure is 136 to 137 °C; as for `CCCC1NS(=O)(=O)N(CCl)C1=O` (centres undefined), 62 to 63.5 °C.
In the case of `CN(C)C(=O)Sc1ccccc1C(=O)c1ccc(C#N)cc1` it was 102 °C; in that of `NC1CSC(c2cccs2)CNC1=O` (centres undefined), 157 °C.
`O=C1CCN(Cc2cc([N+](=O)[O-])ccc2O)CC1C(c1ccccc1)c1ccccc1` (centres undefined) yielded a melting point of 177 to 178 °C.
In the case of `CN1CCC(C2(O)c3ccccc3Oc3ccc(F)cc32)CC1` (centres undefined) it was 193 to 200 °C; in that of `C=CCOc1cc(Br)ccc1C(C)=NO`, 115 °C.
As for `CCC1(C(=O)C=Cc2ccc(OC)c(OC)c2)CC1`, the melting point lay within 63 to 65 °C.
In turn, `COc1ccc(OC)c(C(=S)N2CCOCC2)c1` had a melting point of 127 °C.
As to `CC(CF)(CF)C(O)C(Oc1ccc(Cl)cc1)n1ccnc1` (centres undefined), the melting point came to 137 °C.
In the case of `CCN1CCN(c2cccc3ccc(NC(=O)c4ccc(Cl)cc4)cc23)CC1` it was 173 to 174 °C; in that of `O=C(NCc1ccc(F)cc1)c1ccnc(N2CCN(Cc3ccccn3)C2=O)c1`, 141 to 142 °C; in that of `CC(C)c1c(C=CC2CC(O)CC(O)O2)n(C2CCCCC2)c(=O)c2ccccc12` (mixture of isomers), 141 to 142 °C.
In the case of `c1ccc(CN2CCC3(CC2)OCCCO3)cc1` it was below 50 °C.
`COc1cc(Nc2c(C#N)cnc3cc(/C=C/CCN(C)C)c(OC)cc23)c(Cl)cc1Cl` came in with a melting point of 119 to 121 °C.
In the case of `COc1cc(N)c(Br)cc1C(=O)NC1CCN(CC2CCN(C(N)=O)CC2)CC1` it was 228 to 230 °C.
In the case of `O=C(O)c1ccc(SCC(=O)C23CC4CC(CC(C4)C2)C3)nc1` it was 174 to 176 °C; in that of `CNC(=O)c1cnc(N2CCOCC2)cc1-c1ccccc1C`, 156 to 158 °C.
The compound `CCCNC(=NC(=Nc1ccccc1)N1CCOCC1)C(C)C` showed a melting point of 122 to 124 °C.
In the case of `N#Cc1c(C(N)=O)c2n(c1C1CC1)CCN(C(=O)Nc1ccc(C(=O)O)cc1)C2` it was 279 to 280 °C.
In the case of `COc1cccc(NC(=O)C(C#N)C(=O)c2nn(-c3ccccc3)c3c2Cc2ccccc2-3)c1` (centres undefined) it was 280 to 284 °C; in that of `Cc1cc(F)ccc1-c1cc(N2CCSCC2)ncc1C(N)=O`, 198 to 202 °C.
As for `CCOC(=O)C(CCC#N)(C(=O)OCC)c1ncc([N+](=O)[O-])cc1C`, the figure is 64 to 65.5 °C; as for `CN(C)Cc1nc(CO)nn1-c1ccc(Cl)cc1C(=O)c1ccccc1`, 198 to 200 °C.
Compound `Cc1nnnn1C(C=CC=O)=C(c1ccc(F)cc1)c1ccc(F)cc1` had a melting point of 72 to 78 °C.
In the case of `COc1cccc2c1CN(c1c(F)cc3c(=O)c(C(=O)O)cn(-c4ccc(F)cc4F)c3c1F)C2` it was 262 to 271 °C; in that of `CC1=C(C(=O)OC(C)C)C(c2cccc3ccc(-c4ccccc4)nc23)C([N+](=O)[O-])=C(C)N1` (centres undefined), 205 °C; in that of `Cc1[nH]c(=S)n(Nc2cccc(Cl)c2)c1-c1cccc(Cl)c1`, 204 °C.
For the compound `CC(=O)N1CCN(c2nc(Nc3ccc(F)cc3F)c(C(=O)O)cc2F)CC1`, the melting point was in the range of 243 to 244 °C.
In turn, `COc1ccc(N2CCN(c3ccc(NC(=O)Oc4ccccc4)cc3)CC2)cc1` showed a melting point of 204 °C.
In the case of `O=C(NCCN1CCC(=C(c2ccc(F)cc2)c2ccc(F)cc2)CC1)C1CSC(c2cccnc2)N1` (centres undefined) it was 119 to 121 °C.
`O=C(Nc1cc(O)c(Cl)cc1F)OCc1ccccc1` gave a melting point of 70 to 72 °C.
Regarding `COC1CN(C(=O)c2cc(-c3ccccc3)c(=O)n3nc(C)c4ccsc4c23)C1`, the melting point lay in the range of 169 to 170 °C.
As for `CCc1c(Sc2cc(Cl)cc(Cl)c2)c(C(N)=O)nn1CCO`, the figure is 214 to 216 °C; as for `N#Cc1ccc(C(Cc2ccc(C#N)cn2)Cn2cncn2)cc1` (centres undefined), 98 °C.
In the case of `COC(=O)c1cc(-c2ccncc2)cc2c1OC(c1ccccc1)(c1ccccc1)O2`, the melting point is 151 to 152 °C.
For the compound `COC(=O)COc1ccc(C[C@H](NC(=O)OC(C)(C)C)C(=O)O)cc1`, the melting point was in the range of 75 to 79 °C.
`Cc1ccc(-c2nc(COc3cccc(OCc4cccc(C)c4C(=O)O)c3)co2)s1` gave a melting point of 129 to 130 °C.
`CCOC1OC(COC(C)=O)C(OC2OC(COC(C)=O)C(OC(C)=O)C(OC(C)=O)C2OC(C)=O)C(OC(C)=O)C1OC(C)=O` (centres undefined) returned a melting point of 133 to 135 °C.
Regarding `O=C(O)CCC(=O)c1ccc(OCCCCN2C(=O)c3ccccc3C2=O)cc1`, the melting point is 133 to 134 °C.
As for `Cc1ccc(O[C@H]2CCN(C)C[C@H]2O)cc1C` (relative stereo), the figure is 127 to 129 °C.
In turn, `O=C(O)CC(CC(=O)O)c1cccc2oc3c(c12)CCCC3` yielded a melting point of 176 to 181 °C.
As for `Cc1cccc2[nH]c(S(=O)Cc3cccn4ccnc34)nc12` (centres undefined), the figure is 166 to 168 °C.
`Cn1nnnc1-c1cn(C)c2ccccc2c1=O`: the melting point lay in the range of 220 to 222 °C.
In turn, `CCc1nc2cnc3cc(Br)cnc3c2n1CC(C)(C)O` registered a melting point of 207 to 208 °C.
Regarding `COc1cc2[nH]c(N(C)Cc3cccc(N4CCCC4=O)c3)nc(=O)c2c(OC)c1OC`, the melting point was found to be 166 °C.
The compound `CN1CCN(c2cccc(NC(=O)c3ccc(-c4ccncc4)cc3)c2)CC1` registered a melting point of 232 to 233 °C.
Regarding `Clc1ccc2c(c1)C(c1ccccc1)Nc1nncn1-2` (centres undefined), the melting point is 242 to 244 °C.
Compound `COc1cc(Nc2c(C#N)cnc3c(/C=C/CCN4CCOCC4)cccc23)c(Cl)cc1Cl` showed a melting point of 176 to 179 °C.
In the case of `CCCCOc1nc(N)c2nc(OC)n(CCCCNCCOC)c2n1` it was 99 to 100 °C; in that of `CCS(=O)(=O)Nc1ccc(CN(CC2(c3ccccn3)CCCCC2)C(=O)Nc2c(C(C)C)cccc2C(C)C)cc1`, 209 °C.
In the case of `CCCc1nc2c(N)nc3ccccc3c2n1OCC(N)=O` it was 192 to 194 °C.
For `CC(=O)Nc1cc(N)ccc1OCCCN`, the melting point is 102 to 106 °C.
Regarding `Cc1cc(-c2cccc(Cl)c2)nn2c(C)nnc12`, the melting point is 194 to 196 °C.
